Experimental data as given in patent US9572792B2, “Coumarin compounds as receptor modulators with therapeutic utility” (Allergan, Inc., priority 2009, dated 2017).

What follows are compounds tested against human S1P1 receptor (Homo sapiens (Human), UniProt P21453) (assay: GTP γ35S binding assay). Conditions: S1P1 receptor from GTP γ35S; membranes of cells stably expressing the S1P1 receptor.
Assay type: biochemical
Procedure: The S1P1 activity of the compounds according to the invention, were tested using the GTP γ^35S binding assay. The compounds were assessed for their ability to activate or block activation of the human S1P1 receptor in cells stably expressing the S1P1 receptor.
GTP γ^35S binding was measured in the medium containing (mM) HEPES 25, pH 7.4, MgCl2 10, NaCl 100, dithiothreitol 0.5, digitonin 0.003%, 0.2 nM GTP γ^35S, and 5 μg membrane protein in a volume of 150 μl. Test compounds were included in the concentration range from 0.08 to 5,000 nM unless indicated otherwise. Membranes were incubated with 100 μM 5′-adenylylimidodiphosphate for 30 min, and subsequently with 10 μM GDP for 10 min on ice. Drug solutions and membrane were mixed, and then reactions were initiated by adding GTP γ^35S and continued for 30 min at 25° C. Reaction mixtures were filtered over Whatman GF/B filters under vacuum, and washed three times with 3 mL of ice-cold buffer (HEPES 25, pH7.4, MgCl2 10 and NaCl 100). Filters were dried and mixed with scintillant, and counted for ^35S activity using a 8-counter. Agonist-induced GTP γ^35S binding was obtained by subtracting that in the absence of agonist. Binding data were analyzed using a non-linear regression method. In case of antagonist assay, the reaction mixture contained 10 nM S1P in the presence of test antagonist at concentrations ranging from 0.08 to 5000 nM.
S1P1 receptor from GTP γ^35S: nM, (EC50),

human S1P1 receptor, sequence (P21453 whole entry): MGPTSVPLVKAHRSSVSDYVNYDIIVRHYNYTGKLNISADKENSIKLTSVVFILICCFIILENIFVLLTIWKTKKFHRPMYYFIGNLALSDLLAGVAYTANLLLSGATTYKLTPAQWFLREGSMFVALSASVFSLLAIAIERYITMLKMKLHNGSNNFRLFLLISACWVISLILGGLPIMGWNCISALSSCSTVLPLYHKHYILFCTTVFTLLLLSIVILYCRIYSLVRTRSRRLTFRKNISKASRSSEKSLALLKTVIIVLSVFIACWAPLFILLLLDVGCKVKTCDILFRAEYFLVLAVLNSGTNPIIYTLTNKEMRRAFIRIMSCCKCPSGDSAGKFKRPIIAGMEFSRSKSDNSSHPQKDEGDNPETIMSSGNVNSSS

Row | EC50 [nM] | SMILES
1 | 3.1 | CCCc1c(OC)ccc2cc(C(=O)Nc3ccc(NC(=O)[C@H](N)CCC(=O)O)cc3C)c(=O)oc12 [Compound 62, (4R)-4-amino-5-[(4-{[(7-methoxy-2-oxo-8-propyl-2H-chromen-3-yl)carbonyl]amino}-3-methylphenyl)amino]-5-oxopentanoic acid]
2 | 3.5 | CCCc1c(OC)ccc2cc(C(=O)Nc3ccc(S(N)(=O)=O)cc3Br)c(=O)oc12 [Compound 38, N-[4-(aminosulfonyl)-2-bromophenyl]-7-methoxy-2-oxo-8-propyl-2H-chromene-3-carboxamide]
3 | 26.4 | CCCc1c(OC)ccc2cc(C(=O)Nc3ccccc3Br)c(=O)oc12 [Compound 5, N-(2-bromophenyl)-7-methoxy-2-oxo-8-propyl-2H-chromene-3-carboxamide]
4 | 19 | CCCc1c(OC)ccc2cc(C(=O)Nc3ccncc3Br)c(=O)oc12 [Compound 6, N-(3-bromopyridin-4-yl)-7-methoxy-2-oxo-8-propyl-2H-chromene-3-carboxamide]
